Reference: patent US12172990B2 (Constellation Pharmaceuticals, Inc., priority 2018, dated 2024)

Key:
full length human TREX1 = full length human TREX1 (Homo sapiens (Human), UniProt Q9NSU2); assay: TREX1 Biochemical Assay (fluorescence assay measuring degradation of dsDNA substrate); details: 150 pM TREX1, 60 nM dsDNA substrate, 25 minutes at room temperature
Procedure, shortened: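 His-Tev-tagged full-length human TREX1 expressed in E. coli, 150 pM final, with 60 nM TEX615/quencher-labelled 9-mer dsDNA in Tris pH 7.4, NaCl, DTT, BSA, Tween-20, MgCl2 and 1.0% DMSO; 25 min at room temperature, EDTA-quenched. Fluorescence 615 nm (excitation 570 nm); 10-point IC50 by four-parameter fit against pre-quenched and no-inhibitor controls.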

[1] = molecular target: human TREX2 (residues M44-A279) (Homo sapiens (Human), UniProt Q9BQ50); assay: TREX2 Biochemical Assay (fluorescence assay measuring degradation of dsDNA substrate); details: 2.5 nM TREX2, 60 nM dsDNA substrate, 25 minutes at room temperature
human TREX2 (residues M44-A279), sequence (Q9BQ50 whole entry, the tested form may be a part): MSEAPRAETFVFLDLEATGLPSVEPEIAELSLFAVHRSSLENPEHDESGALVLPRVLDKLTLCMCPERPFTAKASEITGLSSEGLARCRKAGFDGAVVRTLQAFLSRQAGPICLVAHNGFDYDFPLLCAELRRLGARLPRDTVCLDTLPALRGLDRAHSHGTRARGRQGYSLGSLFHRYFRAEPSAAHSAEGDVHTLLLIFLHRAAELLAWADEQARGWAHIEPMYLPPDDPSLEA
Procedure, shortened: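 Final conditions: 2.5 nM His-Tev-tagged TREX2 (E. coli-expressed), 60 nM fluorophore/quencher-labelled dsDNA, 50 mM Tris pH 7.4, 150 mM NaCl, 100 mM MgCl2, 1% DMSO; 10-point compound dose-response. Incubated 25 min at room temperature, then EDTA-quenched; fluorescence read at ex 570/em 615 nm. IC50 from four-parameter fit against pre-quenched and no-inhibitor controls.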

full length human TREX1, sequence (Q9NSU2 whole entry): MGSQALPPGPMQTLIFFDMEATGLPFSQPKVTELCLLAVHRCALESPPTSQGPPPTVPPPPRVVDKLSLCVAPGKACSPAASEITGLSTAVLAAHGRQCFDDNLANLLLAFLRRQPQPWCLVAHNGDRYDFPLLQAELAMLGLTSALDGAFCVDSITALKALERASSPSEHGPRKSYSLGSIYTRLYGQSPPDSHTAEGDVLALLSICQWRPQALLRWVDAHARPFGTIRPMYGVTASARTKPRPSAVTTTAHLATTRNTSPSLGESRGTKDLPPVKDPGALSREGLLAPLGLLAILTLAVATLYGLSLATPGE

For `CC(=O)N1CCCN(c2nc(C(=O)Nc3cnoc3)c(O)c(=O)n2C)CC1` [Example 111, 2-(4-acetyl-1,4-diazepan-1-yl)-5-hydroxy-N-(isoxazol-4-yl)-1-methyl-6-oxo-1,6-dihydropyrimidine-4-carboxamide], the IC50 (full length human TREX1) was 0.1 to 1 µM and the IC50 [1] was 10 to 100 µM.

`Cn1c(N2CCC[C@H]2c2ccccc2)nc(C(=O)Nc2cnoc2)c(O)c1=O` [Example 112, (S)-5-hydroxy-N-(isoxazol-4-yl)-1-methyl-6-oxo-2-(2-phenylpyrrolidin-1-yl)-1,6-dihydropyrimidine-4-carboxamide] gave an IC50 (full length human TREX1) of under 0.1 µM and an IC50 [1] of 1 to 10 µM.

Molecule `Cn1c(N2CCC[C@@H]2c2ccccc2)nc(C(=O)Nc2cnoc2)c(O)c1=O` [Example 113, (R)-5-hydroxy-N-(isoxazol-4-yl)-1-methyl-6-oxo-2-(2-phenylpyrrolidin-1-yl)-1,6-dihydropyrimidine-4-carboxamide] has an IC50 (full length human TREX1) of under 0.1 µM and an IC50 [1] of 1 to 10 µM.

`CC(=O)N1CCN(c2nc(C(=O)Nc3cnoc3)c(O)c(=O)n2C)CC1` [Example 116, 2-(4-acetylpiperazin-1-yl)-5-hydroxy-N-(isoxazol-4-yl)-1-methyl-6-oxo-1,6-dihydropyrimidine-4-carboxamide] gave an IC50 (full length human TREX1) of 0.1 to 1 µM and an IC50 [1] of 10 to 100 µM.

`Cn1c(N2CC[C@H](C(N)=O)C2)nc(C(=O)Nc2cnoc2)c(O)c1=O` [Example 117, (S)-2-(3-carbamoylpyrrolidin-1-yl)-5-hydroxy-N-(isoxazol-4-yl)-1-methyl-6-oxo-1,6-dihydropyrimidine-4-carboxamide] gave an IC50 (full length human TREX1) of 0.1 to 1 µM and an IC50 [1] of 10 to 100 µM.

`Cn1c(N2CC[C@@H](C(N)=O)C2)nc(C(=O)Nc2cnoc2)c(O)c1=O` [Example 118, (R)-2-(3-carbamoylpyrrolidin-1-yl)-5-hydroxy-N-(isoxazol-4-yl)-1-methyl-6-oxo-1,6-dihydropyrimidine-4-carboxamide] gave an IC50 (full length human TREX1) of under 0.1 µM and an IC50 [1] of 10 to 100 µM.

Work on `Cn1c(N2CCC[C@H](C(N)=O)C2)nc(C(=O)Nc2cnoc2)c(O)c1=O` [Example 119, (S)-2-(3-carbamoylpiperidin-1-yl)-5-hydroxy-N-(isoxazol-4-yl)-1-methyl-6-oxo-1,6-dihydropyrimidine-4-carboxamide] yielded an IC50 (full length human TREX1) of 0.1 to 1 µM and an IC50 [1] of 10 to 100 µM.

In the case of `Cn1c(Oc2ccccc2)nc(C(=O)Nc2cnoc2)c(O)c1=O` [Example 120, 5-hydroxy-N-(isoxazol-4-yl)-1-methyl-6-oxo-2-phenoxy-1,6-dihydropyrimidine-4-carboxamide], the IC50 (full length human TREX1) is reported as under 0.1 µM and the IC50 [1] is reported as 1 to 10 µM.

Work on `Cn1c(OC2CCCCC2)nc(C(=O)Nc2cnoc2)c(O)c1=O` [Example 121, 2-(cyclohexyloxy)-5-hydroxy-N-(isoxazol-4-yl)-1-methyl-6-oxo-1,6-dihydropyrimidine-4-carboxamide] yielded an IC50 (full length human TREX1) of under 0.1 µM and an IC50 [1] of 1 to 10 µM.

`Cn1c(N2CC(Oc3ccccc3)C2)nc(C(=O)Nc2cnoc2)c(O)c1=O` [Example 122, 5-hydroxy-N-(isoxazol-4-yl)-1-methyl-6-oxo-2-(3-phenoxyazetidin-1-yl)-1,6-dihydropyrimidine-4-carboxamide] was tested, and the IC50 (full length human TREX1) was 0.1 to 1 µM and the IC50 [1] was 10 to 100 µM.

With `Cn1c(N2CC(OCc3ccccc3)C2)nc(C(=O)Nc2cnoc2)c(O)c1=O` [Example 123, 2-(3-(benzyloxy)azetidin-1-yl)-5-hydroxy-N-(isoxazol-4-yl)-1-methyl-6-oxo-1,6-dihydropyrimidine-4-carboxamide] the IC50 (full length human TREX1) was 0.1 to 1 µM and the IC50 [1] was 10 to 100 µM.

`Cn1c(N2CCC[C@@H]2c2ccccc2Cl)nc(C(=O)Nc2cnoc2)c(O)c1=O` [Example 124, (R)-2-(2-(2-chlorophenyl)pyrrolidin-1-yl)-5-hydroxy-N-(isoxazol-4-yl)-1-methyl-6-oxo-1,6-dihydropyrimidine-4-carboxamide] showed an IC50 (full length human TREX1) of under 0.1 µM and an IC50 [1] of 1 to 10 µM.

With `Cn1c(N2CCN(c3ccccn3)C[C@@H]2c2ccccc2Cl)nc(C(=O)Nc2cnoc2)c(O)c1=O` [Example 125, (S)-2-(2-(2-chlorophenyl)-4-(pyridin-2-yl)piperazin-1-yl)-5-hydroxy-N-(isoxazol-4-yl)-1-methyl-6-oxo-1,6-dihydropyrimidine-4-carboxamide] the IC50 (full length human TREX1) was under 0.1 µM and the IC50 [1] was under 1 µM.

Molecule `CC(=O)N1CCN(c2nc(C(=O)Nc3cnoc3)c(O)c(=O)n2C)[C@H](c2ccccc2Cl)C1` [Example 128, (R)-2-(4-acetyl-2-(2-chlorophenyl)piperazin-1-yl)-5-hydroxy-N-(isoxazol-4-yl)-1-methyl-6-oxo-1,6-dihydropyrimidine-4-carboxamide] has an IC50 (full length human TREX1) of under 0.1 µM and an IC50 [1] of under 1 µM.

With `Cn1c(C2CCCN(CCc3ccccc3)C2)nc(C(=O)Nc2cnoc2)c(O)c1=O` (stereo not shown) [Example 129, 5-hydroxy-N-(isoxazol-4-yl)-1-methyl-6-oxo-2-(1-phenethylpiperidin-3-yl)-1,6-dihydropyrimidine-4-carboxamide] the IC50 (full length human TREX1) was over 10 µM and the IC50 [1] was over 100 µM.

`Cn1c(C2(C)CCCN(C(=O)c3ccc(Cl)c(Cl)c3)C2)nc(C(=O)Nc2cnoc2)c(O)c1=O` (stereo not shown) [Example 130, 2-(1-(3,4-dichlorobenzoyl)-3-methylpiperidin-3-yl)-5-hydroxy-N-(isoxazol-4-yl)-1-methyl-6-oxo-1,6-dihydropyrimidine-4-carboxamide] was tested, and the IC50 (full length human TREX1) was 0.1 to 1 µM and the IC50 [1] was 1 to 10 µM.

Molecule `Cn1c([C@@H]2CCCN(C(=O)c3ccc(Cl)c(Cl)c3)C2)nc(C(=O)Nc2cnoc2)c(O)c1=O` [Example 131, (R)-2-(1-(3,4-dichlorobenzoyl)piperidin-3-yl)-5-hydroxy-N-(isoxazol-4-yl)-1-methyl-6-oxo-1,6-dihydropyrimidine-4-carboxamide] has an IC50 (full length human TREX1) of under 0.1 µM and an IC50 [1] of under 1 µM.
